The source of these data is US8450456B2, “Activating peptide of the synthesis of aquaporins and cosmetic and/or pharmaceutical composition containing it” (ISP Investments Inc., priority 2007, dated 2013).

Ends that are not written are not given here.

The test system of experiment [1] is Biopsies of human skin relieved of their stratum corneum. Kind of experiment: Protective effect against induced cutaneous dehydration (tape stripping), ex vivo skin biopsies, H&E histology. Type of experiment: cell-based. The conditions noted are these: 1% solution of a mother solution at 50 ppm, 24 hours, stripped ex vivo human skin. The method, then: The aim of this study is to determine the protective effect of the peptide SEQ ID no5 with respect to ex vivo epidermis cultures subjected to a stress by an induced cutaneous dehydration.
Biopsies of human skin are relieved of their stratum corneum by stripping by means of an adhesive tape (tape stripping) then held in culture ex vivo, treated with a 1% solution of a mother solution at 50 ppm of peptide SEQ ID no5 for 24 hours. The absence of the stratum corneum induces a high dehydration. Hematoxylin-eosin (H&E) histological sections and stains allow the quality of the cutaneous structures to be evaluated.

For experiment [2], the system named is claudin-1. The experiment can be described thus: Expression of claudin-1 by immunofluorescence on sections of human skin. The conditions noted are these: 1% solution of a mother solution at 50 ppm applied topically, 24 hours (0.05 ppm); in particular the upper layers of the epidermis. The class given is cell-based. The text has this:
(§1) The aim of this study is to determine the influence of the peptide SEQ ID no 5 on the expression of claudins and of keratin K10. Claudins are the principal transmembrane proteins of the intercellular adhesion structures known as tight-junction, which play a part in the cellular communication and in epidermal cohesion. Keratin K10 is a specific keratin of the differentiated epidermal layers (stratum granulosum) and is involved in the barrier function of the skin. The quantity of protein was evaluated by immunofluorescence on sections of human skin.
(§2) Protocol: Samples of human skin are cultured at the air/liquid interface. A 1% solution of a mother solution at 50 ppm of peptide SEQ ID no5 is applied topically, then the samples are incubated for 24 hours.
(§3) These skin samples are then fixed with formaldehyde, then enclosed in paraffin. Sections of 2 to 3 μm are then realized. The immunolabeling is carried out after different stages of washing and of incubation of these sections.
The immunolabeling of claudin-1 is carried out by means of a specific antibody of claudin-1 (claudin-1 antibody: rabbit polyclonal, ref: Ab15098, Abcam, dilution 1/200th), then a secondary antibody, coupled with a fluorescent marker (alexa Fluor 488 donkey anti-rabbit IgG, A21206, Molecular Probes, 1/1000th).
(§4) The skin sections are then examined by epifluorescence microscope (Nikon Eclipse E600 microscope).

Experiment [3] concerns keratin K10. The experiment can be described thus: Expression of keratin K10 by immunofluorescence on sections of human skin. Type of experiment: cell-based. The conditions noted are these: 1% solution of a mother solution at 50 ppm applied topically, 24 hours (0.05 ppm); in particular the upper layers of the epidermis.
From the text: as §1, §2, §3
The immunolabeling of keratin 10 is carried out by means of a specific antibody of keratin 10 (antibody K10: mouse monoclonal, ref: LHP1, Novocastra, dilution 1/50th), then a secondary antibody, coupled to a fluorescent marker (alexa Fluor 488 donkey anti-mouse IgG, A21202, Molecular Probes, 1/1000th).
as §4

Experiment [4] relates to normal human keratinocytes. Kind of experiment: Protective effect against osmotic shock caused by sorbitol, viability test by MTT. The class given is cell-based. The conditions noted are these: sorbitol 250 mM 24 hours, vs non-treated cells. As for the experimental part:
The aim of this study is to determine the protective effect of the peptide SEQ ID no4 with respect to normal human keratinocytes subjected to an osmotic shock caused by sorbitol. The evaluation of the cellular state is then carried out by a viability test by MTT.
Normal human keratinocytes in culture were placed in the presence of the peptide SEQ ID no4 at 0.5%, 1% and 3% from a mother solution at 50 ppm, 24 hours before and during the osmotic shock. The hypertonic culture conditions were realized by adding sorbitol at 250 mM to the culture medium for 24 hours. Non-treated controls are carried out.
Cellular viability tests were then carried out by the MTT technique. The MTT agent (3-[4,5-dimethylthiazol-2-yl]-2,5-diphenyltetrazolium bromide) is used to evaluate the cellular viability. The keratinocytes are incubated in a solution containing 0.1 mg/ml MTT (3-[4,5-dimethylthiazol-2-yl]-2,5-diphenyltetrazolium bromide). This compound is absorbed by the living cells, then metabolized by the mitochondrial enzymes (succinate dehydrogenase) in a blue-violet compound, formazan, which is present in the form of insoluble violet crystals in aqueous medium.
The formazan crystals are solubilized in DMSO. They produce an absorbance (O.D.) proportional to the number of living cells present in the sample. Measurements of absorbance at 540 nm are then carried out. […]

Experiment [5] concerns aquaporin 3. Kind of experiment: Expression of aquaporin 3 by immunofluorescence in samples of skin ex vivo. Type of experiment: cell-based, human. The conditions noted are these: 1% solution of a mother solution at 50 ppm applied topically, 24 hours or 48 hours (0.05 ppm); upper layers of the epidermis; vs non-treated control. The method, then: The aim of this study is to determine the influence of the peptide SEQ ID no5 on the expression of aquaporin 3 in samples of skin ex vivo.
Protocol: Samples of human skin are cultured at the air/liquid interface. A 1% solution of a mother solution at 50 ppm of peptide SEQ ID no4 is applied topically, then the samples are incubated for 24 hours or 48 hours.
These skin samples are then fixed with formaldehyde then enclosed in paraffin. Sections of 2 to 3 μm are then realized. The immunolabeling is carried out after different stages of washing and incubation of these sections. The immunolabeling is carried out by means of a specific polyclonal antibody of aquaporin 3 (anti-aquaporin 3 (C-18): goat polyclonal, sc-9885, Santa Cruz, dilution 1/100th), then a secondary antibody, coupled to a fluorescent marker (alexa-fluor 488 donkey anti-goat Ig G, Molecular Probes, dilution 1/1000th). The skin sections are then examined by epifluorescence microscope (Nikon Eclipse E600 microscope).

With “Asn-Pro-Ala-Arg-NH2 (NPAR-NH2) [SEQ ID no5]”, in experiment [1], the “appearance of the keratinocytes of the basal layer (regeneration)” value was “regenerating effect”. In addition, the “signs of cellular stress and preservation of cutaneous structures (H&E sections)” value in experiment [1] (vs non-treated biopsies) is “distinct reduction to the signs of cellular stress and a better preservation of the cutaneous structures”. In experiment [2], the claudin-1 immunofluorescence result is recorded as “stronger fluorescence”. In addition, in experiment [3], the “keratin K10 immunofluorescence” value is on record as “stronger fluorescence”.

In the case of Asn-Pro-Ala-Arg (NPAR) [SEQ ID no4], in experiment [4] (peptide at 0.5%, 1% and 3% of a mother solution at 50 ppm), the “viability of cells subjected to the osmotic shock (dose dependence)” value is on record as “increase in the viability, dependent on dose”. The “increase of viability of cells subjected to the osmotic shock” value in experiment [4] (peptide at 3% of a mother solution at 50 ppm, 24 hours before and during shock) is 12%. The “aquaporin 3 immunofluorescence” value in experiment [5] is “stronger fluorescence”.
